Results reported in US4195171A, “Derivatives of an antibiotic XK-62-2 and process for the production thereof” (Abbott Laboratories, priority 1975, dated 1980).
Values after ≈ are worked out from the molar mass of the structure shown. Like-named read-outs stand apart in the source and are kept apart here.

Assays:
Experiment in all cases: Antibacterial spectrum, MIC by agar dilution method
Type in all cases: cell-based
[1] = test system: Klebsiella pneumoniae Y-60; details: Y60, pH 7.2, strain produces gentamicin adenyltransferase, read-out: Minimum Inhibitory Concentration
From the text: (§1) XK-62-2, 1-N-[L-(-)-α-hydroxy-γ-aminobutyryl] XK-62-2, Compounds (I-1), (I-2), (II-1) and (II-2) against various Gram-negative and Gram-positive bacteria determined by agar dilution method at pH 7.2.
(§2) ^4 produces gentamicin adenyltransferase

[2] = test system: Escherichia coli KY Z-338; details: KYZ338, pH 7.2, strain produces gentamicin adenyltransferase, read-out: Minimum Inhibitory Concentration
From the text: as §1, §2

[3] = test system: Klebsiella pneumoniae Y-58; details: Y58, pH 7.2, strain produces gentamicin adenyltransferase, read-out: Minimum Inhibitory Concentration
From the text: as §1, §2

[4] = test system: Pseudomonas aeruginosa KY 8511; details: KY8511, pH 7.2, strain produces gentamicin acetyltransferase Type I, read-out: Minimum Inhibitory Concentration
From the text: as §1
(§3) ^2 produces gentamicin acetyltransferase Type I

Escherichia coli KY 8348 = details: KY8348, pH 7.2, strain produces gentamicin acetyltransferase Type I, read-out: Minimum Inhibitory Concentration
From the text: as §1, §3

[5] = test system: Pseudomonas aeruginosa KY 8518; details: KY8518, pH 7.2, strain produces neomycinkanamycin phosphotransferase Type I, read-out: Minimum Inhibitory Concentration
From the text: as §1
(§4) ^3 produces neomycinkanamycin phosphotransferase Type I

Escherichia coli KY 8349 = details: KY8349, pH 7.2, strain produces neomycinkanamycin phosphotransferase Type I, read-out: Minimum Inhibitory Concentration
From the text: as §1, §4

Escherichia coli KY 8320 = details: KY8320, pH 7.2, strain produces neomycinkanamycin phosphotransferase Type I, read-out: Minimum Inhibitory Concentration
From the text: as §1, §4

[6] = test system: Pseudomonas aeruginosa KY 8512; details: KY8512, pH 7.2, strain produces neomycinkanamycin phosphotransferase Type I and Type II, read-out: Minimum Inhibitory Concentration
From the text: as §1
^6 produces neomycinkanamycin phosphotransferase Type I and Type II

Providencia sp. 164 = details: pH 7.2, strain produces gentamicin acetyltransferase Type II, read-out: Minimum Inhibitory Concentration
From the text: as §1
^9 produces gentamicin acetyltransferase Type II

Escherichia coli KY 8321 = details: KY8321, pH 7.2, strain produces gentamicin adenyltransferase and neomycinkanamycin phosphotransferase Type II, read-out: Minimum Inhibitory Concentration
From the text: as §1
^5 produces gentamicin adenyltransferase and neomycinkanamycin
phosphotransferase Type II

[7] = test system: Klebsiella pneumoniae No. 8045; details: pH 7.2, read-out: Minimum Inhibitory Concentration
From the text: as §1

Proteus mirabilis 1287 = details: pH 7.2, read-out: Minimum Inhibitory Concentration
From the text: as §1

[8] = test system: Pseudomonas aeruginosa BMH 1; details: BMH1, pH 7.2, read-out: Minimum Inhibitory Concentration
From the text: as §1

Proteus morganii KY 4298 = details: Morganella morganii, KY4298; agar dilution, pH 7.2; read-out: Minimum Inhibitory Concentration
From the text: as §1

Escherichia coli T-5 = test system: Escherichia coli T-5
From the text: as §1

[9] = test system: Pseudomonas aeruginosa E-2; details: E2, pH 7.2, read-out: Minimum Inhibitory Concentration
From the text: as §1

Proteus rettgeri KY 4288 = details: Providencia rettgeri, KY4288, pH 7.2, read-out: Minimum Inhibitory Concentration
From the text: as §1

Escherichia coli T-2 = details: T2, pH 7.2, read-out: Minimum Inhibitory Concentration
From the text: as §1

Proteus vulgaris 6897 = details: pH 7.2, read-out: Minimum Inhibitory Concentration
From the text: as §1

[10] = test system: bacillus subtilis ATCC 6633; details: ATCC6633, pH 7.2, read-out: Minimum Inhibitory Concentration
From the text: as §1

Serratia sp T-55 = details: T55, agar dilution, pH 7.2, read-out: Minimum Inhibitory Concentration
From the text: as §1

[11] = test system: Staphylococcus aureus Smith; details: pH 7.2, read-out: Minimum Inhibitory Concentration
From the text: as §1

Escherichia coli Juhl = details: pH 7.2, read-out: Minimum Inhibitory Concentration
From the text: as §1

[12] = test system: Pseudomonas aeruginosa No. 12; details: pH 7.2, read-out: Minimum Inhibitory Concentration
From the text: as §1

[13] = test system: Salmonella typhimurium E-9; details: Salmonella enterica, pH 7.2, read-out: Minimum Inhibitory Concentration
From the text: as §1

[14] = test system: Pseudomonas aeruginosa BMH 10; details: BMH10, pH 7.2, read-out: Minimum Inhibitory Concentration
From the text: as §1

Sarcina lutea ATCC 9341 = details: Micrococcus luteus, ATCC9341, pH 7.2, read-out: Minimum Inhibitory Concentration
From the text: as §1

[15] = test system: Streptococcus faecalis ATCC 10541; details: Enterococcus faecalis, ATCC10541, pH 7.2, read-out: Minimum Inhibitory Concentration
From the text: as §1

[16] = test system: Salmonella enteritidis G-14; details: Salmonella enterica, pH 7.2, read-out: Minimum Inhibitory Concentration
From the text: as §1

[17] = test system: Shigella sonnei ATCC 9290; details: ATCC9290, pH 7.2, read-out: Minimum Inhibitory Concentration
From the text: as §1

[18] = test system: Pseudomonas aeruginosa NC-5; details: NC5, pH 7.2, read-out: Minimum Inhibitory Concentration
From the text: as §1

[19] = test system: Staphylococcus aureus 209 P; details: pH 7.2, read-out: Minimum Inhibitory Concentration
From the text: as §1

Q: For `CC1(O)COC(OC2C(NC(=O)C(O)CCN)CC(N)C(OC3OC(CN)CCC3N)C2O)C(O)C1N` (single isomer, unassigned) [Compound I-2, 3"-N, 6'-N-didemethyl-1-N-[L-(-)-α-hydroxy-γ-aminobutyryl] XK-62-2], which MIC [1] is on record?
A: 0.78 µg/mL (≈ 1.45 µM)

Q: What about the MIC [2] of the same compound?
A: 0.4 µg/mL (≈ 0.745 µM)

Q: What about the MIC [3] of the same compound?
A: 0.78 µg/mL (≈ 1.45 µM)

Q: What about the MIC [4] of the same compound?
A: 0.78 µg/mL (≈ 1.45 µM)

Q: And the MIC (Escherichia coli KY 8348)?
A: 0.4 µg/mL (≈ 0.745 µM)

Q: And the MIC [5]?
A: 0.78 µg/mL (≈ 1.45 µM)

Q: What about the MIC (Escherichia coli KY 8349) of the same compound?
A: 0.4 µg/mL (≈ 0.745 µM)

Q: And the MIC (Escherichia coli KY 8320)?
A: 0.78 µg/mL (≈ 1.45 µM)

Q: And the MIC [6]?
A: 0.78 µg/mL (≈ 1.45 µM)

Q: And the MIC (Providencia sp. 164)?
A: 6.25 µg/mL (≈ 11.6 µM)

Q: What about the MIC (Escherichia coli KY 8321) of the same compound?
A: 0.78 µg/mL (≈ 1.45 µM)

Q: What about the MIC [7] of the same compound?
A: 0.78 µg/mL (≈ 1.45 µM)

Q: And the MIC (Proteus mirabilis 1287)?
A: 12.5 µg/mL (≈ 23.3 µM)

Q: And the MIC [8]?
A: 0.78 µg/mL (≈ 1.45 µM)

Q: What about the MIC (Proteus morganii KY 4298) of the same compound?
A: 0.78 µg/mL (≈ 1.45 µM)

Q: And the MIC (Escherichia coli T-5; T5, pH 7.2, read-out: Minimum Inhibitory Concentration)?
A: 1.56 µg/mL (≈ 2.91 µM)

Q: And the MIC [9]?
A: 1.56 µg/mL (≈ 2.91 µM)

Q: What about the MIC (Proteus rettgeri KY 4288) of the same compound?
A: 0.78 µg/mL (≈ 1.45 µM)

Q: What about the MIC (Escherichia coli T-2) of the same compound?
A: 0.78 µg/mL (≈ 1.45 µM)

Q: What about the MIC (Proteus vulgaris 6897) of the same compound?
A: 3.12 µg/mL (≈ 5.81 µM)

Q: And the MIC [10]?
A: 0.1 µg/mL (≈ 0.186 µM)

Q: And the MIC (Serratia sp T-55)?
A: 3.12 µg/mL (≈ 5.81 µM)

Q: And the MIC [11]?
A: 0.2 µg/mL (≈ 0.373 µM)

Q: What about the MIC (Escherichia coli Juhl) of the same compound?
A: 1.56 µg/mL (≈ 2.91 µM)

Q: What about the MIC [12] of the same compound?
A: 0.4 µg/mL (≈ 0.745 µM)

Q: And the MIC [13]?
A: 0.4 µg/mL (≈ 0.745 µM)

Q: What about the MIC [14] of the same compound?
A: 0.4 µg/mL (≈ 0.745 µM)

Q: And the MIC (Sarcina lutea ATCC 9341)?
A: 0.78 µg/mL (≈ 1.45 µM)

Q: What about the MIC [15] of the same compound?
A: 12.5 µg/mL (≈ 23.3 µM)

Q: And the MIC ([16]; agar dilution)?
A: 12.5 µg/mL (≈ 23.3 µM)

Q: And the MIC [17]?
A: 1.56 µg/mL (≈ 2.91 µM)

Q: What about the MIC [18] of the same compound?
A: 1.56 µg/mL (≈ 2.91 µM)

Q: What about the MIC [19] of the same compound?
A: 0.2 µg/mL (≈ 0.373 µM)

Q: `CNCC1CCC(N)C(OC2C(N)CC(NC(=O)C(O)CCN)C(OC3OCC(C)(O)C(N)C3O)C2O)O1` (single isomer, unassigned) [II-2, 3"-N-demethyl-1-N-[L-(-)-α-hydroxy-γ-aminobutyryl] XK-62-2] was tested. Which MIC [1] did it give?
A: 0.78 µg/mL (≈ 1.42 µM)

Q: And the MIC [2]?
A: 0.4 µg/mL (≈ 0.726 µM)

Q: What about the MIC [3] of the same compound?
A: 0.4 µg/mL (≈ 0.726 µM)

Q: What about the MIC [4] of the same compound?
A: 1.56 µg/mL (≈ 2.83 µM)

Q: And the MIC (Escherichia coli KY 8348)?
A: 0.4 µg/mL (≈ 0.726 µM)

Q: And the MIC [5]?
A: 1.56 µg/mL (≈ 2.83 µM)

Q: What about the MIC (Escherichia coli KY 8349) of the same compound?
A: 0.4 µg/mL (≈ 0.726 µM)

Q: And the MIC (Escherichia coli KY 8320)?
A: 0.78 µg/mL (≈ 1.42 µM)

Q: What about the MIC [6] of the same compound?
A: 1.56 µg/mL (≈ 2.83 µM)

Q: What about the MIC (Providencia sp. 164) of the same compound?
A: 12.5 µg/mL (≈ 22.7 µM)

Q: What about the MIC (Escherichia coli KY 8321) of the same compound?
A: 0.78 µg/mL (≈ 1.42 µM)

Q: And the MIC [7]?
A: 0.78 µg/mL (≈ 1.42 µM)

Q: And the MIC (Proteus mirabilis 1287)?
A: 12.5 µg/mL (≈ 22.7 µM)

Q: And the MIC [8]?
A: 1.56 µg/mL (≈ 2.83 µM)

Q: What about the MIC (Proteus morganii KY 4298) of the same compound?
A: 1.56 µg/mL (≈ 2.83 µM)

Q: What about the MIC (Escherichia coli T-5; T5, agar dilution, pH 7.2, read-out: Minimum Inhibitory Concentration) of the same compound?
A: 0.4 µg/mL (≈ 0.726 µM)

Q: What about the MIC [9] of the same compound?
A: 3.12 µg/mL (≈ 5.67 µM)

Q: What about the MIC (Proteus rettgeri KY 4288) of the same compound?
A: 0.78 µg/mL (≈ 1.42 µM)

Q: And the MIC (Escherichia coli T-2)?
A: 0.78 µg/mL (≈ 1.42 µM)

Q: What about the MIC (Proteus vulgaris 6897) of the same compound?
A: 6.25 µg/mL (≈ 11.4 µM)

Q: And the MIC [10]?
A: 0.2 µg/mL (≈ 0.363 µM)

Q: And the MIC (Serratia sp T-55)?
A: 1.56 µg/mL (≈ 2.83 µM)

Q: What about the MIC [11] of the same compound?
A: 0.4 µg/mL (≈ 0.726 µM)

Q: And the MIC (Escherichia coli Juhl; agar dilution)?
A: 1.56 µg/mL (≈ 2.83 µM)

Q: And the MIC [12]?
A: 0.78 µg/mL (≈ 1.42 µM)

Q: And the MIC [13]?
A: 0.78 µg/mL (≈ 1.42 µM)

Q: And the MIC [14]?
A: 0.4 µg/mL (≈ 0.726 µM)

Q: What about the MIC (Sarcina lutea ATCC 9341) of the same compound?
A: 1.56 µg/mL (≈ 2.83 µM)

Q: And the MIC [15]?
A: 25 µg/mL (≈ 45.4 µM)

Q: What about the MIC [16] of the same compound?
A: 3.12 µg/mL (≈ 5.67 µM)

Q: What about the MIC [17] of the same compound?
A: 3.12 µg/mL (≈ 5.67 µM)

Q: What about the MIC [18] of the same compound?
A: 3.12 µg/mL (≈ 5.67 µM)

Q: What about the MIC [19] of the same compound?
A: 0.4 µg/mL (≈ 0.726 µM)
